# Laboratory results taken from the supplement of paper PMC11208160.
# Assay: recombinant UMI read abundance after kanamycin selection (control-corrected) (log10(CPM+1)); higher = more efficient recombination; extreme values may be limits of the assay; sequences stand for … in AGTGCAGAGAAAATCGGCCAGTTTTCTCTGCCTGCAGTCCGCATGCCGTGGGACCCCTTGGGTTCTAACCTGTTGCCTAGATTTATGCAGCGGACTGCCTTTCTCCCAAAGTGATAAACCGG…AGGTTGGTTTCACT; site = the 11-nt donor
# Method in brief: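 In a pooled Escherichia coli screen for the IS621 bridge recombinase, donor and donor-binding-loop pairs were each placed with a 12-nt UMI on a plasmid bearing a promoterless kanamycin gene. This library was co-electroporated with a target plasmid encoding a fixed target and T7-inducible recombinase, and cells were plated either on IPTG (0.07 mM) plus kanamycin or without selection, in two replicates each. Recombinant UMIs were PCR-amplified across the donor–target junction and sequenced, and counts were converted to CPM, averaged over replicates, scaled by control-derived factors and reported as log10(CPM+1).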
row,Sequence,recombinant UMI read abundance (log10)
1,GGAGACTCATGGACCGGTTTTCCCGGTAATCCGTATTTGGC (site GGAGACTCTGC),0.784
2,GGAGACTCATGGACCGGTTTTCCCGGTAATCCGTATTTGTG (site GGAGACTCTCA),1.74
3,GGAGAGGCATGGACCGGTTTTCCCGGTAATCCGTATTTGGT (site GGAGAGGCTAC),0.00324
4,GGAGAGGCATGGACCGGTTTTCCCGGTAATCCGTATTTGGT (site GGAGCGGCTAC),0.00751
5,GGAGAGGCATGGACCGGTTTTCCCGGTAATCCGTATTTGGT (site GGAGGGGCTAC),0.0239
6,GGAGAGGCATGGACCGGTTTTCCCGGTAATCCGTATTTGGT (site GGAGTGGCTAC),0.0204
7,GGAGATCCATGGACCGGTTTTCCCGGTAATCCGTATTTGCA (site GGAGATCCTTG),0
8,GGAGATTCATGGACCGGTTTTCCCGGTAATCCGTATTTGTT (site GAAGATTCTAA),0
9,GGAGATTCATGGACCGGTTTTCCCGGTAATCCGTATTTGTT (site GCAGATTCTAA),0
10,GGAGATTCATGGACCGGTTTTCCCGGTAATCCGTATTTGTT (site GGAGATTCTAA),2.52
11,GGAGATTCATGGACCGGTTTTCCCGGTAATCCGTATTTGTT (site GTAGATTCTAA),0
12,GGAGCTTCATGGACCGGTTTTCCCGGTAATCCGTATTTGGC (site GGAGCTTCTGC),1.5
13,GGAGGACCATGGACCGGTTTTCCCGGTAATCCGTATTTGGG (site AGAGGACCTCC),0
14,GGAGGACCATGGACCGGTTTTCCCGGTAATCCGTATTTGGG (site CGAGGACCTCC),0.0177
15,GGAGGACCATGGACCGGTTTTCCCGGTAATCCGTATTTGGG (site GGAGGACCTCC),0.00471
16,GGAGGACCATGGACCGGTTTTCCCGGTAATCCGTATTTGGG (site TGAGGACCTCC),0.00615
17,GGAGGTTCATGGACCGGTTTTCCCGGTAATCCGTATTTGAT (site GGAGGTTCTAT),1.87
18,GGAGTAGCATGGACCGGTTTTCCCGGTAATCCGTATTTGTC (site GGAGTAGCTGA),1.98
19,GGAGTGGCATGGACCGGTTTTCCCGGTAATCCGTATTTGAT (site GGAGTGGCTAA),0.00289

row,Sequence,recombinant UMI read abundance (log10)
1,GGAGTGGCATGGACCGGTTTTCCCGGTAATCCGTATTTGAT (site GGAGTGGCTAC),0.0174
2,GGAGTGGCATGGACCGGTTTTCCCGGTAATCCGTATTTGAT (site GGAGTGGCTAG),0
3,GGAGTGGCATGGACCGGTTTTCCCGGTAATCCGTATTTGAT (site GGAGTGGCTAT),1.87
4,GGAGTGGCATGGACCGGTTTTCCCGGTAATCCGTATTTGTT (site GGAGTGGCTAA),1.06
5,GGAGTGGCATGGACCGGTTTTCCCGGTAATCCGTATTTGTT (site GGAGTGGCTAC),0.00283
6,GGAGTGGCATGGACCGGTTTTCCCGGTAATCCGTATTTGTT (site GGAGTGGCTAG),1.76
7,GGAGTGGCATGGACCGGTTTTCCCGGTAATCCGTATTTGTT (site GGAGTGGCTAT),0.767
8,GGATAAACATGGACCGGTTTTCCCGGTAATCCGTATTTGCC (site GGATAAACTGG),2.49
9,GGATAAACATGGACCGGTTTTCCCGGTAATCCGTATTTGCC (site GGATACACTGG),1.01
10,GGATAAACATGGACCGGTTTTCCCGGTAATCCGTATTTGCC (site GGATAGACTGG),0
11,GGATAAACATGGACCGGTTTTCCCGGTAATCCGTATTTGCC (site GGATATACTGG),0
12,GGATACACATGGACCGGTTTTCCCGGTAATCCGTATTTGCC (site GGATAAACTGG),0
13,GGATACACATGGACCGGTTTTCCCGGTAATCCGTATTTGCC (site GGATACACTGG),2.97
14,GGATACACATGGACCGGTTTTCCCGGTAATCCGTATTTGCC (site GGATAGACTGG),0
15,GGATACACATGGACCGGTTTTCCCGGTAATCCGTATTTGCC (site GGATATACTGG),0
16,GGATAGACATGGACCGGTTTTCCCGGTAATCCGTATTTGCA (site GGATAGACTAG),0.763
17,GGATAGACATGGACCGGTTTTCCCGGTAATCCGTATTTGCA (site GGATAGACTCG),0.831
18,GGATAGACATGGACCGGTTTTCCCGGTAATCCGTATTTGCA (site GGATAGACTGG),0.112
19,GGATAGACATGGACCGGTTTTCCCGGTAATCCGTATTTGCA (site GGATAGACTTG),2.79

row,Sequence,recombinant UMI read abundance (log10)
1,GGATAGACATGGACCGGTTTTCCCGGTAATCCGTATTTGCG (site GGATAGACTAG),2.19
2,GGATAGACATGGACCGGTTTTCCCGGTAATCCGTATTTGCG (site GGATAGACTCG),2.55
3,GGATAGACATGGACCGGTTTTCCCGGTAATCCGTATTTGCG (site GGATAGACTGG),1.52
4,GGATAGACATGGACCGGTTTTCCCGGTAATCCGTATTTGCG (site GGATAGACTTG),2.13
5,GGCAAGACATGGACCGGTTTTCCCGGTAATCCGTATTTGCA (site AGGAAGACTTG),0
6,GGCAAGACATGGACCGGTTTTCCCGGTAATCCGTATTTGCA (site GGCAAGACTTG),2.62
7,GGCAATCCATGGACCGGTTTTCCCGGTAATCCGTATTTGAG (site GGCAATCCTAT),0
8,GGCAATCCATGGACCGGTTTTCCCGGTAATCCGTATTTGAG (site GGCAATCCTCT),0.41
9,GGCAATCCATGGACCGGTTTTCCCGGTAATCCGTATTTGAG (site GGCAATCCTGT),0
10,GGCAATCCATGGACCGGTTTTCCCGGTAATCCGTATTTGAG (site GGCAATCCTTT),0.0105
11,GGCAATCCATGGACCGGTTTTCCCGGTAATCCGTATTTGGA (site GGCAATCCTTA),0
12,GGCAATCCATGGACCGGTTTTCCCGGTAATCCGTATTTGGA (site GGCAATCCTTC),0
13,GGCAATCCATGGACCGGTTTTCCCGGTAATCCGTATTTGGA (site GGCAATCCTTG),0
14,GGCAATCCATGGACCGGTTTTCCCGGTAATCCGTATTTGGA (site GGCAATCCTTT),0.00891
15,GGCACGACATGGACCGGTTTTCCCGGTAATCCGTATTTGCG (site GGCACGACTCG),0.903
16,GGCACGCCATGGACCGGTTTTCCCGGTAATCCGTATTTGTA (site GACACGCCTTA),0.00602
17,GGCACGCCATGGACCGGTTTTCCCGGTAATCCGTATTTGTA (site GCCACGCCTTA),0.006
18,GGCACGCCATGGACCGGTTTTCCCGGTAATCCGTATTTGTA (site GGCACGCCTTA),0.523
19,GGCACGCCATGGACCGGTTTTCCCGGTAATCCGTATTTGTA (site GTCACGCCTTA),0.00471
